The values that follow come from article PMC8507260, “A2E-induced inflammation and angiogenesis in RPE cells in vitro are modulated by PPAR-α, -β/δ, -γ, and RXR antagonists and by norbixin” (Aging (Albany NY), 2021).

Entries after “also recorded” stand apart in the source; their conditions may differ. Read-outs that look alike come from different tables or passages of the source.

The target of one assay is T1, PPAR-γ (Homo sapiens, UniProt P37231).
T1 sequence (P37231 1-505): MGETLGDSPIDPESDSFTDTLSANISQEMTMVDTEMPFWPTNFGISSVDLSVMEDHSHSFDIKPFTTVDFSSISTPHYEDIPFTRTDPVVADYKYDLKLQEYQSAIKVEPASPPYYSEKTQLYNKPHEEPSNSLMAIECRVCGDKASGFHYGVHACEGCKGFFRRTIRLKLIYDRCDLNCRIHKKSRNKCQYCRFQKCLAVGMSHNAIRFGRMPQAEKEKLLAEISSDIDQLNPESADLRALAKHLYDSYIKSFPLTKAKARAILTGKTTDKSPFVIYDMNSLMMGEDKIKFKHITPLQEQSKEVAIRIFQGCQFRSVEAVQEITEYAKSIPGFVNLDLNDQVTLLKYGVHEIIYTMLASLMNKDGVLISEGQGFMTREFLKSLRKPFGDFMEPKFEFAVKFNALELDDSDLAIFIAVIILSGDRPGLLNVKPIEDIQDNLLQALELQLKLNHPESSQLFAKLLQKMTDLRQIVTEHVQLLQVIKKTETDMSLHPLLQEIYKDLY
Also on record: Eurofins Cerep (contract laboratory that ran the assay); method as in PMID 19891958. To be noted: cited from earlier work.

The test system of the next assay is PPAR-α. As to the kind of experiment: Transactivation of over-expressed PPAR-α, luciferase reporter in porcine RPE cells. The conditions noted are these: for transactivation of over-expressed PPAR-α by the compound alone: vs DMSO control, A2E 20 μM, NBX increasing concentrations. Format: cell-based, pig. Here is the method:
First, we evaluated the binding profile of A2E to all three isoforms of PPAR. […] Then the effects of A2E on the endogenous PPAR transactivation in porcine RPE cells were investigated by means of a luciferase assay. […] The level of transactivation of PPAR-α, -β/δ, or -γ isoforms by A2E was determined by co-transfection of porcine RPE cells with a plasmid expressing each of the full-length PPAR isoforms and a plasmid expressing luciferase under the control of the PPAR response element. […]. All usual chemicals, primers, and HX531 were from Sigma (St. Louis, MO, USA). Reagents for cell culture, transfection and quantitative RT-PCR were from Thermo Fisher Scientific (Waltham, MA, USA). RNA extraction NucleoSpin® RNA kit was from Macherey Nagel (Düren, Germany). ECL prime and PVDF membrane were from Amersham GE Healthcare (Buckinghamshire, UK). Primary antibodies against the following proteins were used: GAPDH (Santa Cruz Biotechnology, Inc, Dallas, TX, USA); pAKT, AKT, pERK and ERK (Cell Signaling, Danvers, MA, USA). Secondary antibodies were from Jackson ImmunoResearch (Cambridgeshire, UK). […] Cignal Pathway Reporter Assay Kits were from QIAGEN (Frederick, MD, USA). The Dual-Luciferase Reporter Assay System was purchased from Promega (Madison, WI, USA). pcDNA 3.1 (+)-PPARα and pcDNA 3.1 (+)-PPARβ/δ (pig sequence) were purchased from Genscript (Piscataway, NJ, USA). pCMV6-XL4-PPARγ (human sequence) was purchased from Origene (Rockville, MD, USA).
(§1) After one week in culture, cells were trypsinized and transferred to a 96-well plate at a density of 6 × 10^4 cells/cm^2 in DMEM2%FCS. The next day, cells were transfected using the Cignal Reporter Assay Kits for PPAR, RXR, AP-1 and NF-κB, according to the manufacturer’s specifications. To measure the specific activation of PPAR isoforms, cells were also co-transfected with PPAR-α, PPAR-β/δ or PPAR-γ expression vectors. Transfection was performed with Lipofectamine and Plus Reagent in serum-free medium. 3 h after the transfection, the medium was replaced and treatments with the molecules to assay were performed. Luciferase activity was measured the next day using the Dual-Luciferase Reporter Assay System. The measurements were performed with a luminometer (Infinite M1000 from Tecan, Mannedorf, Switzerland). Firefly: Renilla activity ratios were calculated for each condition and ratios from transcription factor-responsive reporter transfections were divided by ratios from negative control transfections to obtain relative luciferase unit, as described by the manufacturer. At least 3 independent transfections were performed in triplicate for each condition.
On the technique in general: In a reporter assay the amount or activity of a reporter protein is the signal.

The test system of a further assay is PPAR. Nature of the assay: Endogenous PPAR transactivation, luciferase reporter in primary porcine RPE cells. Format: cell-based. Here is the method:
(§2) Pig eyes were obtained from a local slaughterhouse and transported to the laboratory in ice-cold Ringer solution. After removal of the anterior segment of the eye, the vitreous and neural retina was separated from the RPE and removed. The eyecup was washed twice with phosphate buffer saline (PBS), filled with trypsin (0.25% in PBS) and incubated at 37°C for 1.5 h. RPE cells were harvested by gently pipetting, centrifuged to remove trypsin and re-suspended in Dulbecco’s Modified Eagle Medium (DMEM) supplemented with 20% (v/v) foetal-calf serum (DMEM20%FCS) and 0.1% gentamycin. Cells were seeded into 60 mm diameter Petri dishes, cultured in an atmosphere of 5% CO2/95% air at 37°C, and supplied with fresh medium after 24 hours and 4 days in vitro. For experiments aimed at measuring mRNA or protein expression in RPE, cells were trypsinized after one week in culture and transferred to 24-well or 6-well plates at a density of 1.5 × 10^5 cells/cm^2 in DMEM2%FCS. Norbixin or agonists were added to the medium 24 h after seeding, and antagonists were added to the medium 24 h later. A2E treatment was performed during 19 h before cellular sample preparation. All the drugs used in these experiments were prepared as stock solutions in DMSO.
as §1

For another assay, the system named is AKT. As to the kind of experiment: AKT phosphorylation by western blot in primary porcine RPE cells. The class given is cell-based. Here is the method:
as §2, with “Norbixin or agonists were added to the medium 24 h after seeding, and antagonists were added to the medium 24 h later. A2E treatment was performed during 19 h before cellular sample preparation. All the drugs used in these experiments were prepared as stock solutions in DMSO.” left out
RPE samples were lysed in 20 mM Tris-HCl, 150 mM NaCl, 1 mM EDTA, 1% NP-40, pH 7.5 buffer containing a cocktail of protease and phosphatase inhibitors. […] The signal was developed using enhanced chemiluminescence reagents (ECL) prime detection kit, quantified by densitometry using Bio1D (Vilber Lourmat, Germany) and normalized by GAPDH levels. […]
Background: A western blot detects proteins with antibodies after separation by electrophoresis.

For the compound `CC(/C=C/C=C(C)/C=C/C(=O)O)=C\C=C\C=C(C)\C=C\C=C(C)\C=C\C(=O)O` (stereo in doubt) [norbixin, 9’-cis-norbixin], the “PPAR-γ transactivation in 3T3-L1 adipocytes” value on PPAR-γ (norbixin at 20 μM) is “does not induce; also recorded: did not induce”; at PPAR-γ (norbixin at 70 μM), “induces a limited transactivation”. Besides, the “effect on over-expressed PPAR-α transactivation induced by A2E” value in the assay on PPAR-α (A2E 20 μM + NBX 20 μM) is “fully abolished”. Besides, in the assay with PPAR-α (GW9578 at 10 nM, NBX 20 μM), the “inhibition of PPAR-α transactivation induced by GW9578” value was “did not inhibit significantly”. Besides, in the assay on PPAR-α, the “transactivation of over-expressed PPAR-α by the compound alone” value is reported as “did not demonstrate any transactivation activity”. In addition, the “inhibition of endogenous PPAR transactivation induced by A2E” value with PPAR (A2E 20 μM, NBX 20 μM, HX531 5 μM (HX531 effect not significant)) came to 52%. In addition, the “effect of the compound alone on endogenous PPAR transactivation” value in the assay with PPAR (NBX 20 μM, no A2E) is given as “did not inhibit”. Moreover, the “effect on the increase of AKT phosphorylation induced by A2E” value in the assay with AKT (NBX 20 μM + A2E 30 μM) is “abrogated completely”.

As for `CC(C=CC1=C(C)CCCC1(C)C)=CC=CC(C)=Cc1cc(C=CC=C(C)C=CC2=C(C)CCCC2(C)C)cc[n+]1CCO` [A2E, N-retinylidene-N-retinylethanolamine], in the assay on PPAR-α, the “transactivation of over-expressed PPAR-α by the compound alone” value is recorded as “induced the transactivation”. For the same compound, the “minimal required concentration to transactivate all PPARs (endogenous)” value with PPAR (dose-response, porcine RPE cells) was 20 µM. For the same compound, in the assay on AKT (A2E 30 μM vs DMSO control), the “effect of the compound alone on AKT phosphorylation” value is given as “induced the phosphorylation”.
